Reference: publication PMC5947317 (ACS chemical biology, 2017)
Like-named read-outs stand apart in the source and are kept apart here. Blank lines part the entries; values can stand above or below the compound they belong to.

How the values were obtained:
HA-UCHL1 [1] = molecular target: T1, HA-UCHL1 (Homo sapiens, UniProt P09936); test: AlphaLISA DUB assay miniaturized to 1536-well format; type: biochemical
T1 sequence (P09936 1-223): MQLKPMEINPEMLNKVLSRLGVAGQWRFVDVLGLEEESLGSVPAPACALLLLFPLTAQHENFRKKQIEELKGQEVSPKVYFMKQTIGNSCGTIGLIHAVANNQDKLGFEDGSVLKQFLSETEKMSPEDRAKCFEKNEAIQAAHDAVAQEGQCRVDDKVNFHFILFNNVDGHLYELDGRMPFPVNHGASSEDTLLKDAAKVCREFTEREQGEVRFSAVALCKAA

UCHL1 [2] = molecular target: T2, UCHL1 (Homo sapiens, UniProt P09936); test: Ub-AMC assay with recombinant UCHL1; type: biochemical; settings: for difference in IC50 value (selectivity for UCHL1): versus UCHL3, UCHL5, USP2 catalytic core
T2 sequence (P09936 1-223): T1 sequence (P09936 1-223)

UCHL1 [3] = molecular target: T2, UCHL1; test: Rapid dilution reversibility assay; type: biochemical; settings: incubated at ten times IC50, diluted 100-fold; normalized to DMSO
UCHL3 = molecular target: T3, UCHL3 (Homo sapiens, UniProt P15374); test: Ub-AMC selectivity assay, UCHL3; type: biochemical; settings: 114 μM
T3 sequence (P15374 1-230): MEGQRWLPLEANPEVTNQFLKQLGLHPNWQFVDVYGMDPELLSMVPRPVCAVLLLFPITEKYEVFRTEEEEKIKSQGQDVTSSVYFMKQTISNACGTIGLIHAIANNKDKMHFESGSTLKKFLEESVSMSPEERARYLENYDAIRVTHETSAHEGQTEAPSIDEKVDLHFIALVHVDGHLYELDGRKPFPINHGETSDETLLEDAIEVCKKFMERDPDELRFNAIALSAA

UCHL5 = molecular target: T4, UCHL5 (Homo sapiens, UniProt Q9Y5K5); test: Ub-AMC selectivity assay, UCHL5; type: biochemical; settings: 114 μM
T4 sequence (Q9Y5K5 1-329): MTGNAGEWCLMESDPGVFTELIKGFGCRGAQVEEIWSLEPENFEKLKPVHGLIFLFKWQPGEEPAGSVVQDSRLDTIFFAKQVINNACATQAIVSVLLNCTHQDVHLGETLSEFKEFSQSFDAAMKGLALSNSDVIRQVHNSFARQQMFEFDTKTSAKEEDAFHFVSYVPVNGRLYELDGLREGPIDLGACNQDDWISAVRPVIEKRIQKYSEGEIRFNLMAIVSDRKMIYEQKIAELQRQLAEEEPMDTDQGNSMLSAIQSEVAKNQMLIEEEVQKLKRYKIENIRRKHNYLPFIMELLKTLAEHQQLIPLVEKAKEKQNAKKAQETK

USP2 catalytic core = molecular target: T5, USP2 catalytic core (Homo sapiens, UniProt O75604); test: Ub-AMC selectivity assay, USP2 catalytic core; type: biochemical; settings: 114 μM
T5 sequence (O75604 267-599 limits assumed): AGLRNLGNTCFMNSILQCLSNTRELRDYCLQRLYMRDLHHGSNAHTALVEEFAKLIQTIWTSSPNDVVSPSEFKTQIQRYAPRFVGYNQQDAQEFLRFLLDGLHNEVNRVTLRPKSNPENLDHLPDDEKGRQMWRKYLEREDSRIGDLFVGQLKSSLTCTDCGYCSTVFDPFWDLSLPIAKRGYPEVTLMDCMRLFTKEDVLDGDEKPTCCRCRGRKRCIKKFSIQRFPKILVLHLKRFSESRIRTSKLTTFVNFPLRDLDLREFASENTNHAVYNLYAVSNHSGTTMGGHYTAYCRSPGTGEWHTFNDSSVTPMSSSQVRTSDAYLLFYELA

full length USP15 = molecular target: T6, full length USP15 (Homo sapiens, UniProt Q9Y4E8); test: Ub-AMC selectivity assay, full length USP15; type: biochemical; settings: 114 μM
T6 sequence (Q9Y4E8 1-981): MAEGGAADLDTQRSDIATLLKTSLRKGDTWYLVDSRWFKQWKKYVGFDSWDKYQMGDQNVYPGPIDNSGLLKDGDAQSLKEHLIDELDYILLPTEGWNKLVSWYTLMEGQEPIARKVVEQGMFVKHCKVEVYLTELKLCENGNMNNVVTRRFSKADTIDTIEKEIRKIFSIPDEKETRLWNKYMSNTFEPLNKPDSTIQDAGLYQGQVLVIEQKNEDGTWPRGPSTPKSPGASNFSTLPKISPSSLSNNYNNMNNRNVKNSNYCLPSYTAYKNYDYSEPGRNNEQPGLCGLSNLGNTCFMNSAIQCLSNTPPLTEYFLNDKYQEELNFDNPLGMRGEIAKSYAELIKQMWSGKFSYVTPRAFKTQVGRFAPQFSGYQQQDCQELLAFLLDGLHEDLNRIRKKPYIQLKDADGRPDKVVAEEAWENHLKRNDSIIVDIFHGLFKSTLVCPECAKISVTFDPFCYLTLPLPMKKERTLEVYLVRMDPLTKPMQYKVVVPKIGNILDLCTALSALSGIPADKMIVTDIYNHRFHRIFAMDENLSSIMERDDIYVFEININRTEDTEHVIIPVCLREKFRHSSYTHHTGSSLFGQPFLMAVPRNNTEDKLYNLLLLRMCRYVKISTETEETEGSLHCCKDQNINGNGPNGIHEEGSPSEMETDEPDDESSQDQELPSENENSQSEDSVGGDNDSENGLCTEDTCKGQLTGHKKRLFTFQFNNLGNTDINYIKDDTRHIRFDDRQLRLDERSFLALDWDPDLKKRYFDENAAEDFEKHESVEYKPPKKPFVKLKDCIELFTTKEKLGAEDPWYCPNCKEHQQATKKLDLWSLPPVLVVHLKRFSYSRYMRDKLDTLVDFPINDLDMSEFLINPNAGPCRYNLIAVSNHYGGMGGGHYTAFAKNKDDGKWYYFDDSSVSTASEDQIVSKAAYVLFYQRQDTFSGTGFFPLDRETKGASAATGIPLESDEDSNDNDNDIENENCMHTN

HA-UCHL1 [4] = molecular target: T1, HA-UCHL1; test: Cell lysate AlphaLISA DUB assay, 384-well format; type: biochemical; settings: 384-well plate format; dose-response
UCHL1 [5] = settings: cited from earlier work
HA-UCHL1 [6] = molecular target: T1, HA-UCHL1; settings: HEK293T cell lysates; Western blot, anti-HA
endogenous UCHL1 = molecular target: T7, endogenous UCHL1 (Homo sapiens, UniProt P09936); type: biochemical; settings: 100 μM and 20 μM of compound; HEK293T cell lysates
T7 sequence (P09936 1-223): T1 sequence (P09936 1-223)

- IC50 (HA-UCHL1 [1]; read-out: IC50 determined in the qHTS, qHTS, data not shown): 38.5 µM
- IC50 (UCHL1 [2]; Ub-AMC as substrate): 47.7 µM
- recovered UCHL1 activity after rapid dilution (UCHL1 [3]): > 80%
- inhibition at highest inhibitor concentration (UCHL3): no significant inhibition
- inhibition at highest inhibitor concentration (UCHL5): no significant inhibition
- inhibition at highest inhibitor concentration (USP2 catalytic core): no significant inhibition
- inhibition at highest inhibitor concentration (full length USP15): no significant inhibition
SMILES: COC(=O)C1=CO[C@@H](C)[C@@H]2CN3CCc4c([nH]c5ccc(OC)cc45)[C@@H]3C[C@H]12 [(-)-aricine]

- inhibition in the AlphaLISA assay (HA-UCHL1 [4]): no obvious inhibition
- inhibition of UCHL1 labeling by biotin-UbVMe (HA-UCHL1 [6]): did not inhibit the labeling
SMILES: Cc1cnc(-c2ccccc2C(C)C)nc1NCc1ccc(-n2ccnn2)cc1 [ML323]
- activity against UCHL1 (UCHL1 [5]): inactive

SMILES: CCN1C(=O)C=CC1=O [NEM, N-ethylmaleimide, reference compound]
- recovered UCHL1 activity after rapid dilution (UCHL1 [3]): 3.9%

SMILES: CC(=O)Oc1c2c(c(CC=C(C)C)c3c1C(=O)C1=C[C@@H]4CC5C(C)(C)OC(C/C=C(\C)C(=O)O)(C4=O)[C@@]15O3)OC(C)(CCC=C(C)C)C=C2 (some centres unmarked) [acetyl isogambogic acid]
- IC50 (HA-UCHL1 [1]): 30.6 µM
- selectivity among UCHs and USPs tested (UCHL1 [2]; UCHL1 versus UCHL3, UCHL5, USP2 catalytic core, USP15, Ub-AMC): more promiscuous inhibitors
- recovered UCHL1 activity after rapid dilution (UCHL1 [3]): > 80%
- inhibition of endogenous UCHL1 labeling by HA-UbVMe (endogenous UCHL1): stronger inhibition

SMILES: CC1=C(O)C(=O)C=C2C1=CC=C1[C@@]2(C)CC[C@@]2(C)[C@@H]3C[C@](C)(C(=O)O)CC[C@]3(C)CC[C@]12C [celastrol]
- IC50 (HA-UCHL1 [1]): 4.46 µM
- difference in IC50 value (selectivity for UCHL1) (UCHL1 [2]; USP15, Ub-AMC): ≥ 4 fold
- recovered UCHL1 activity after rapid dilution (UCHL1 [3]): > 80%
- inhibition of endogenous UCHL1 labeling by HA-UbVMe (endogenous UCHL1): stronger inhibition

SMILES: O=c1c2cc(O)c(O)cc2oc2cc(O)c([C@@H]3O[C@H](CO)[C@@H](O)[C@H](O)[C@H]3O)c(O)c12 [mangiferin]
- IC50 (HA-UCHL1 [1]): 1.12 µM
- IC50 (UCHL1 [2]): 8.9 µM
- difference in IC50 value (selectivity for UCHL1) (UCHL1 [2]; USP15, Ub-AMC): ≥ 4 fold
- recovered UCHL1 activity after rapid dilution (UCHL1 [3]): > 80%
- inhibition of endogenous UCHL1 labeling by HA-UbVMe (endogenous UCHL1): stronger inhibition

- IC50 (HA-UCHL1 [1]): 38.5 µM
- IC50 (UCHL1 [2]): 19.5 µM
SMILES: CO[C@H]1/C=C/O[C@@]2(C)Oc3c(C)c(O)c4c(O)c(c(/C=N/N5CCN(C)CC5)c(O)c4c3C2=O)NC(=O)/C(C)=C\C=C\[C@H](C)[C@H](O)[C@@H](C)[C@@H](O)[C@@H](C)[C@H](OC(C)=O)[C@@H]1C [rifampicin, reference compound]
